Consider 13 molecules from ChEMBL document CHEMBL5247668, “Design, synthesis and biological evaluation of novel indole-3-carboxylic acid derivatives with antihypertensive activity” (Bioorg Med Chem Lett, 2023).

Data set [1] has as its system Rattus norvegicus. The data set is described as follows: Antihypertensive activity in spontaneously hypertensive rat assessed as decrease in blood pressure at 5 to 10 mg/kg, po. In kind it is functional, organism-based. Conditions: dose 5-10 mg/kg.
The target of data set [2] is T1, Type-1 angiotensin II receptor (Homo sapiens, UniProt P30556).
T1 sequence (P30556 whole entry): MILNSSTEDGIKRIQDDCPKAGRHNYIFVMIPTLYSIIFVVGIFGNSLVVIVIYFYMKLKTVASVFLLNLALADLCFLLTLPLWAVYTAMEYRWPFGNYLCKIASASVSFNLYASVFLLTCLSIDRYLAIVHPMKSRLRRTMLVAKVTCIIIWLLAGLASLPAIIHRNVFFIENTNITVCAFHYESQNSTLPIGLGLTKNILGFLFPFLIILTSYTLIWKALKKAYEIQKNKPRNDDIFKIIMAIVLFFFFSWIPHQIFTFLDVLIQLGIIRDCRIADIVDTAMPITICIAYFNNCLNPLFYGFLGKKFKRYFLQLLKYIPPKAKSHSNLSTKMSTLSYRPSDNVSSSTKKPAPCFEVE
In words: Displacement of [125I]-Angiotensin II from Angiotensin II type-1 receptor in VSMC cells (unknown origin) by competition radioligand binding assay. In kind it is cell-based.

Data set [3] deals with T1, Type-1 angiotensin II receptor. In words: Displacement of [125I]-Angiotensin II from Angiotensin II type-1 receptor in VSMC cells (unknown origin) assessed as inhibition constant by competition radioligand binding assay. It counts as cell-based. (In general: Displacement assays read how much labelled ligand stays bound in the presence of the test substance.)
For data set [4], the system named is Rattus norvegicus. The data set is described as follows: Antihypertensive activity in spontaneously hypertensive rat assessed as decrease in maximal mean blood pressure at 10 mg/kg, po. In kind it is functional.
Data set [5] can be described thus: AUC (0 to infinity) in spontaneously hypertensive Wistar rat at 10 mg/kg, po. In kind it is ADME, organism-based. Further details: dose 10 mg/kg, route po. Conditions: in vivo.
Data set [6] relates to Rattus norvegicus. The data set is described as follows: Antihypertensive activity in spontaneously hypertensive rat assessed as decrease in maximal mean blood pressure at 10 mg/kg, po measured for 24 hrs. In kind it is functional, organism-based.
A short description of data set [7]: Half life in spontaneously hypertensive Wistar rat at 10 mg/kg, po. In kind it is ADME, organism-based. Conditions: in vivo.
A short description of data set [8]: Tmax in spontaneously hypertensive Wistar rat at 10 mg/kg, po. It counts as ADME, organism-based. Particulars: in vivo.
The nature of data set [9]: AUC (0 to 72 hrs) in spontaneously hypertensive Wistar rat at 10 mg/kg, po. In kind it is ADME, organism-based. Further details: dose 10 mg/kg, route po. Particulars: in vivo.
Data set [10] is described as follows: MRT (0 to 72 hrs) in spontaneously hypertensive Wistar rat at 10 mg/kg, po. It counts as ADME, organism-based. Particulars: in vivo.
Data set [11] in a line: MRT (0 to infinity) in spontaneously hypertensive Wistar rat at 10 mg/kg, po. In kind it is ADME, organism-based. Conditions: in vivo.
Data set [12] in a line: Cmax in spontaneously hypertensive Wistar rat at 10 mg/kg, po. It counts as ADME, organism-based. Further details: dose 10 mg/kg, route po. Particulars: in vivo.

Calls of active or inactive are those of the source. The calls are words filed in the database; no cut-off is given here.

A word on the IC50: it is the point on the concentration scale where inhibition reaches its midpoint. Read a high IC50 as a need for much substance. The term Ki denotes the dissociation constant of the complex between target and ligand, obtained from inhibition or displacement. For `CCCCc1c(C(=O)O)c2ccccc2n1S(C)(=O)=O`, the outcome in the data set with Rattus norvegicus [1] was Active. The molecule further yielded an IC50 in data set [2] of 29.2 nM. Besides, in data set [3], the Ki came out at 28.6 nM.

As for `O=C(O)c1c(CO)n(C(=O)c2ccccc2)c2ccccc12`, the outcome in the data set on Rattus norvegicus [1] was Active. The molecule further displayed an IC50 in data set [2] of 31.1 nM. Also, in data set [3], the Ki is 30.8 nM.

As for `CS(=O)(=O)n1c(CO)c(C(=O)O)c2ccccc21`, the outcome with Rattus norvegicus [1] was Active. In data set [2], this molecule returned an IC50 of 27.1 nM. In addition, the Ki in [3] is 26.3 nM.

On to `CCCCc1nc(Cl)c(CO)n1Cc1ccc(-c2ccccc2-c2nnn[nH]2)cc1` [LOSARTAN], for which the Activity in the data set on Rattus norvegicus [4] was determined as 42.5 mmHg.

As to `CCCCc1c(C(=O)O)c2ccccc2n1S(=O)(=O)c1ccc(C)cc1`, in the data set with Rattus norvegicus [1], the result was Active. Besides, the IC50 in [2] stood at 28.3 nM. Further, the Ki in data set [3] came to 27.3 nM.

As for `Cc1ccc(S(=O)(=O)n2c(CO)c(C(=O)O)c3ccccc32)cc1`, the result with Rattus norvegicus [1] was Active. The molecule further came in with an IC50 in data set [2] of 24.2 nM. Also, the Ki in data set [3] is 23.3 nM.

As to `CS(=O)(=O)n1c(COCc2ccccc2)c(C(=O)O)c2ccccc21`, in the data set with Rattus norvegicus [1], the outcome was Active. The molecule also returned an IC50 in data set [2] of 25.5 nM. The Ki in data set [3] worked out at 24.7 nM.

By AUC(0-inf) is commonly meant the area under the concentration-time curve extrapolated to infinity. Read a high AUC(0-inf) as high exposure. The half-life is how long it takes for the measured level to halve. In general, Tmax refers to the time from dosing to the highest level. The term AUC(0-t) denotes the area under the concentration-time curve up to a stated or last time point. A high value points to high exposure. What is called MRT last is the average time that molecules of a dose stay in the body. The MRT inf is the average time that molecules of a dose stay in the body. As usually defined, the Cmax is the highest concentration seen after dosing. On to `O=C(O)c1c(-c2ccccc2)n(C(=O)c2ccccc2)c2ccccc12`, for which the outcome in the data set on Rattus norvegicus [1] and in the data set with Rattus norvegicus [6] was Active. Besides, the area under the curve AUC(0-inf) in data set [5] worked out at 260 ng·h/mL. This molecule returned an IC50 in [2] of 12.3 nM. Moreover, in [3], the Ki was 11 nM. Further, in the data set with Rattus norvegicus [4], the Activity was found to be 48.6 mmHg. Also, the half-life in data set [7] is 1190 min. In data set [8], the Tmax was 2.7 h. This molecule showed an AUC(0-t) in data set [9] of 253 ng·h/mL. This molecule gave an MRT last in data set [10] of 20.2 h. The same molecule yielded an MRT inf in data set [11] of 30.3 h. In data set [12], this molecule had a Cmax of 18.1 ng/mL.

In the case of `Cc1ccc(S(=O)(=O)n2c(COCc3ccccc3)c(C(=O)O)c3ccccc32)cc1`, in the data set with Rattus norvegicus [1], the outcome was Active. The same molecule had an IC50 in data set [2] of 22.4 nM. Also, the Ki in data set [3] amounted to 21.7 nM.

As for `CCCCc1c(C(=O)O)c2ccccc2n1C(=O)c1ccccc1`, the result with Rattus norvegicus [1] was Active. The same molecule came in with an IC50 in [2] of 22.2 nM. For the same molecule, the Ki in data set [3] was found to be 21.9 nM.

Turning to `O=C(O)c1c(COCc2ccccc2)n(C(=O)c2ccccc2)c2ccccc12`, in the data set with Rattus norvegicus [1], the outcome was Active. The same molecule registered an IC50 in [2] of 32.2 nM. Also, the inhibition constant Ki in data set [3] was 31.4 nM.

Turning to `Cc1ccc(S(=O)(=O)n2c(-c3ccccc3)c(C(=O)O)c3ccccc32)cc1`, in the data set on Rattus norvegicus [1], the result was Active. This molecule also showed an IC50 in data set [2] of 18 nM. The inhibition constant (Ki) in data set [3] turned out to be 16.4 nM.

With `CS(=O)(=O)n1c(-c2ccccc2)c(C(=O)O)c2ccccc21`, the result with Rattus norvegicus [1] and in the data set on Rattus norvegicus [6] was Active. The same molecule showed an IC50 in data set [2] of 11.3 nM. The Ki in data set [3] is 10.8 nM. The Activity in the data set on Rattus norvegicus [4] is listed as 46.3 mmHg.
